According to patent US8703815B2, “Small molecules that covalently modify transthyretin” (The Scripps Research Institute, priority 2009, dated 2014):
pIC50: −log10 of the molar value. Read-outs that look alike come from different tables or passages of the source.

Assays:
V30M-TTR = target: T1, V30M-TTR (Homo sapiens, UniProt P02766, V50M); assay: Acid-mediated V30M-TTR fibril formation assay (turbidity at 400 nm); format: biochemical; details: pH 4.4, 72 hours, 37° C.; for % Fibril Formation 7.2 μM (V30M-TTR): compound 7.2 μM; for % Fibril Formation […] (V30M-TTR): compound […]
T1 construct: composed of 127-residue β-sheet-rich subunits; made in house
Procedure: Compounds (5 μL of 1.44 mM solution in DMSO) were added to 495 μL of TTR (7.2 μM, in 10 mM sodium phosphate, 100 mM KCl, 1 mM EDTA, pH 7.0). The mixtures were vortexed and incubated (maintained) for 18 hours at 25° C. […] The solutions were vortexed to evenly distribute any precipitate, and turbidity was measured at 400 nm using a Hewlett Packard model 8453 UV-VIS Spectrophotometer.

WT-TTR [1] = target: T2, WT-TTR (Homo sapiens, UniProt P02766); assay: Acid-mediated WT-TTR fibril formation assay (turbidity at 400 nm); format: biochemical; details: for pIC50: % fibril formation after 72 hours, read-out: IC50 (apparent), inhibition of WT-TTR amyloidogenesis; for % Fibril Formation 7.2 μM (WT-TTR): compound 7.2 μM; for % Fibril Formation 7.2 μM (WT-TTR) / % Fibril Formation […] (WT-TTR): pH 4.4, 72 hours, 37° C.; for % Fibril Formation […] (WT-TTR): compound […]
T2 construct: composed of 127-residue β-sheet-rich subunits; made in house; host or cells: E. coli
Procedure: The mixtures were vortexed and incubated (maintained) for 18 hours at 25° C.

[2] = target: T3, TTR in human blood plasma (Homo sapiens, UniProt P02766); assay: Modification of TTR in human blood plasma (immunocapture, RP-HPLC); format: binding; details: compound 10.8 μM, 24 hours, 37° C.; maximum 50%
T3 construct: RP-HPLC analysis of TTR captured from human plasma; from tissue; host or cells: human blood plasma
Procedure: Compounds 1-4 (10.8 μM) were incubated for 24 hours at 37° C. with human plasma, wherein the TTR concentration is 3.6-5.4 μM.
Furthermore, compound A2 was evaluated to determine its ability to bind selectively to and then react chemoselectively with TTR over the 4000+ other proteins in human blood plasma. Compound A2 (10.8 μM) was incubated with human blood plasma (TTR concentration is 3.6-5.4 μM) for 24 hours at 37° C. before immunoisolating human TTR using a Sepharose® resin-conjugated anti-TTR polyclonal antibody [Purkey et al., Proc. Natl. Acad. Sci. U.S.A. 2001, 98, 5566-5571].
The modification ratio of TTR by kinetic stabilizers in human plasma was evaluated as described [Purkey et al., Proc. Natl. Acad. Sci. U.S.A. 98:5566-5571 (2001)] with minor modifications. Briefly, compounds (7.5 μL of 1.44 mM solution in DMSO) were added to 1 mL of human plasma and incubated at 37° C. for 24 hours on a rocker (30 rpm). A 1:1 (v/v) slurry of unfunctionalized Sepharose® resin in 10 mM Tris, 140 mM NaCl, pH 8.0 (TSA) was added and the solutions were incubated for 1 hour at 4° C. on a rocker plate, followed by brief centrifugation.
Two 400 μL aliquots of the supernatants were added to 300 μL of 1:1 (v:v) slurry of anti-TTR antibody-conjugated Sepharose® resin in TSA. The solutions were gently rocked at 4° C. for 20 minutes (30 rpm), centrifuged, and supernatants were removed. The resin was washed by shaking for 1 minute in 1 mL of TSA solution containing 0.05% saponin (three times) and then 1 mL of TSA solution (twice). The TTR and bound test compound were dissociated from the resin by adding 155 μL of triethylamine (100 mM, pH 11.5) and vortexing for 1 minute. After centrifugation, 135 μL of solution containing test compound and TTR was analyzed by RP-HPLC as described above except that the linear gradients were run from 100:0 to 0:100 A:B for 45 minutes.

WT-TTR [3] = target: T2, WT-TTR; assay: Fluorimetric assay with recombinant WT-TTR; format: binding
Procedure: WT-TTR was expressed in an E. coli expression system and purified as described previously. […] The samples were vortexed, and incubated for 18 h at 25° C. […] The excitation slit was set at 5 nm and the emission slit was set at […]. The samples were excited at 328 nm and the emission spectra were collected from 350 to 550 nm. WT-TTR was expressed and purified from an E. coli expression system as described previously. [Lashuel et al., Biochemistry 1999, 38:13560]. […] The samples were vortexed, and incubated for 18 hours at 25° C. […] The excitation slits was set at 5 nm and the emission slits was set at […]. The samples were excited at 328 nm and the emission spectra were collected from 330 to 550 nm (FIG. 4). The time-dependent fluorescence changes were monitored in similar manner (FIG. 5).

K15A-TTR [4] = target: T4, K15A-TTR (Homo sapiens, UniProt P02766, K35A); assay: RP-HPLC analysis of reaction with K15A-TTR homotetramer; format: binding
T4 construct: composed of 127-residue β-sheet-rich subunits; made in house
Excerpt: A strictly analogous study performed with the K15A homotetrameric TTR mutant confirmed that K15 was essential for the observed chemoselective reaction between TTR and Compounds […] (FIG. 1A, bottom trace). […] However, it is important to note that Compounds 1-3 were only slightly less chemoselective (<5% reaction with K15A).
The ability of compounds A1 and A2, auxochromic analogs of previously discussed stilbenes [Klabunde et al., Nat. Struct. Biol. 2000, 7, 312-321; Connelly et al., Curr. Opin. Struc. Biol. 2010, 20, 54-62; Johnson et al., J. Med. Chem. 2008, 51, 6348-6358; Choi et al., J. Am. Chem. Soc. 2010, 132, 1359-1370; Choi et al., Nat. Chem. Biol. 2010, 6, 133-139; and Baures et al., Bioorg. Med. Chem. 1998, 6, 1389-1401] to form a chemoselective amide bond with the K15 residue of TTR was assessed by reverse-phase-HPLC and liquid chromatography-mass spectrometry analysis. […] The binding of the covalent modifier A2 to K15A-TTR (in the absence of amide bond conjugation) was confirmed by incubating A2 with K15A-TTR in phosphate buffer (pH 7) followed by K15A immunoisolation using a Sepharose® resin-conjugated anti-TTR polyclonal antibody [Purkey et al., Proc. Natl. Acad. Sci. U.S.A. 2001, 98, 5566-5571].
Recombinant WT-TTR was expressed as described previously [Lashuel et al., Biochemistry 38:13560-13573 (1999)]. For analysis of test compounds with TTR, each compound (1.5 μL in DMSO, 1.44 mM) was added to 300 μL of WT-TTR or K15A mutant TTR (3.6 μM, 10 mM sodium phosphate, 100 mM KCl, 1 mM EDTA, pH 7.0). The samples were vortexed, and incubated for 18 hours at 25° C. Reverse phase high performance liquid chromatography (RP-HPLC) was performed on a Water 600 E multi-solvent delivery system, using a Waters 486 tunable absorbance detector, a 717 autosampler, and a ThermoHypersil Keystone Betabasic-18 column μ150 Å pore size, 3 μm particle size, and mobile phase A; 0.1% TFA in 95% H2O+5% CH3CN and mobile phase B, 0.1% TFA in 95% CH3CN+5% H2O). Linear gradients were run from 100:0 to 0:100 A:B for 27 minutes.

K15A-TTR [5] = target: T4, K15A-TTR; assay: Fluorimetric assay with recombinant K15A-TTR; format: binding; details: 24 hour incubation
Procedure: [The source words this procedure for another variant and says it was used here with some conditions changed.] The excitation spectra are shown with dotted traces (λmax=328 nm), and emission spectra are adjacently (λmax=384 nm). Very low fluorescence resulted from 328 nm excitation of stilbene Compounds 4 or 2 alone in buffer (FIGS. 4A and 4B; traces substantially on the X-axis).
WT-TTR was expressed in an E. coli expression system and purified as described previously. [Lashuel et al., Biochemistry 1999, 38, 13560-13573] The covalent TTR modifiers (A1 or A2) or the non-covalent TTR ligand B2 (5 μL of a 1.44 mM solution in DMSO, final concentration: 7.2 μM) were added to 1 mL of a solution of WT-TTR homotetramer (0.2 mg/mL, 3.6 μM) in 10 mM phosphate, 100 mM KCl and 1 mM EDTA (pH 7.0 phosphate buffer) in a 2 mL Eppendorf tube. The samples were vortexed, and incubated for 18 h at 25° C. The fluorescence changes were monitored using a Varian Cary 50 spectrofluorometer at 20° C. in a 1 cm path length quartz cell. The excitation slit was set at 5 nm and the emission slit was set at […]. The samples were excited at 328 nm and the emission spectra were collected from 350 to 550 nm.
WT-TTR was expressed and purified from an E. coli expression system as described previously. [Lashuel et al., Biochemistry 1999, 38:13560]. The covalent modifiers (Compounds 4 or 2) or the non-covalent TTR ligand Compound B2 (5 μL of a 1.44 mM solution in DMSO) were added to 1 mL of a solution of WT-TTR (0.2 mg/mL, 3.6 μM) in 10 mM phosphate, 100 mM KCl and 1 mM EDTA (pH 7.0) in a 2 mL Eppendorf tube. The samples were vortexed, and incubated for 18 hours at 25° C. The fluorescence changes were monitored using a Varian Cary 50 spectrofluorometer at 20° C. in a 1 cm path length quartz cell. The excitation slits was set at 5 nm and the emission slits was set at […]. The samples were excited at 328 nm and the emission spectra were collected from 330 to 550 nm (FIG. 4). The time-dependent fluorescence changes were monitored in similar manner (FIG. 5).

% Fibril Formation 7.2 μM (V30M-TTR) (V30M-TTR) [%] | % Fibril Formation […] (V30M-TTR) (V30M-TTR) [%] | pIC50 (WT-TTR [1]; WT-TTR 3.6 μM) | % Fibril Formation 7.2 μM (WT-TTR) (WT-TTR [1]; WT-TTR […]) [%] | % Fibril Formation […] (WT-TTR) (WT-TTR [1]; WT-TTR […]) [%] | % Modification of TTR subunits in Human Blood Plasma [2] | reaction with K15A-TTR (in words) (K15A-TTR [4]) | Structure (SMILES) | other results
3 | 17 | 5.65 to 5.71 | 2 | 12 | 36% (±0.4%) |  | O=C(Sc1ccccc1)c1cccc(/C=C/c2cc(Br)c(O)c(Br)c2)c1 [Compound 1, (E)-S-phenyl 3-(3,5-dibromo-4-hydroxystyryl)benzothioate] | pIC50 (WT-TTR [1]; WT-TTR […]): 5.70
3 | 33 | 5.65 to 5.71 | 4 | 21 | 49% (±0.7%) |  | Cc1cc(/C=C/c2cccc(C(=O)Oc3ccccc3[N+](=O)[O-])c2)cc(C)c1O [Compound 3, (E)-2-nitrophenyl 3-(4-hydroxy-3,5-dimethylstyryl)benzoate] | 
 |  |  |  |  |  | no conjugation | Cc1cc(/C=C/c2cc(C(=O)Oc3ccc(F)cc3)cc(N(C)C)c2)cc(C)c1O [Compound A1, (E)-4-fluorophenyl 3-(dimethylamino)-5-(4-hydroxy-3,5-dimethylstyryl)benzoate] | fluorescence after incubation with WT-TTR (in words) (WT-TTR [3]; phosphate buffer pH 7, 18 hours): bright blue fluorescence
 |  |  |  |  |  | more non-chemoselective conjugation | Cc1cc(/C=C/c2ccc(C(=O)Oc3ccccc3[N+](=O)[O-])cc2)cc(C)c1O [Compound 6] | 
 |  |  |  |  |  |  | CCCNC(=O)c1cccc(/C=C/c2cc(C)c(O)c(C)c2)c1 [Compound B1, (E)-3-(4-hydroxy-3,5-dimethylstyryl)-N-propylbenzamide] | time for binding to WT-TTR (WT-TTR [3]): ≤ 1 min; increase in fluorescence intensity with WT-TTR vs compound alone in buffer (WT-TTR [3]; WT-TTR […], compound 7.2 μM, 24 hours): about 400 fold; increase in fluorescence intensity with WT-TTR within 1 minute vs compound alone in buffer (WT-TTR [3]; time-dependent emission spectra): about 360 fold; increase in fluorescence intensity upon binding to K15A-TTR (K15A-TTR [5]): about 190 fold
